From patent publication US20250361230A1, “LATS Inhibitors and Uses Thereof” (The USA, as Represented by the Secretary, Dept. of Heath …, priority 2022, published 2025) come the findings set out here.

What all share (type): biochemical
One assay concerns the target T1, LATS1 (Homo sapiens, UniProt O95835).
T1 sequence (O95835 1-1130): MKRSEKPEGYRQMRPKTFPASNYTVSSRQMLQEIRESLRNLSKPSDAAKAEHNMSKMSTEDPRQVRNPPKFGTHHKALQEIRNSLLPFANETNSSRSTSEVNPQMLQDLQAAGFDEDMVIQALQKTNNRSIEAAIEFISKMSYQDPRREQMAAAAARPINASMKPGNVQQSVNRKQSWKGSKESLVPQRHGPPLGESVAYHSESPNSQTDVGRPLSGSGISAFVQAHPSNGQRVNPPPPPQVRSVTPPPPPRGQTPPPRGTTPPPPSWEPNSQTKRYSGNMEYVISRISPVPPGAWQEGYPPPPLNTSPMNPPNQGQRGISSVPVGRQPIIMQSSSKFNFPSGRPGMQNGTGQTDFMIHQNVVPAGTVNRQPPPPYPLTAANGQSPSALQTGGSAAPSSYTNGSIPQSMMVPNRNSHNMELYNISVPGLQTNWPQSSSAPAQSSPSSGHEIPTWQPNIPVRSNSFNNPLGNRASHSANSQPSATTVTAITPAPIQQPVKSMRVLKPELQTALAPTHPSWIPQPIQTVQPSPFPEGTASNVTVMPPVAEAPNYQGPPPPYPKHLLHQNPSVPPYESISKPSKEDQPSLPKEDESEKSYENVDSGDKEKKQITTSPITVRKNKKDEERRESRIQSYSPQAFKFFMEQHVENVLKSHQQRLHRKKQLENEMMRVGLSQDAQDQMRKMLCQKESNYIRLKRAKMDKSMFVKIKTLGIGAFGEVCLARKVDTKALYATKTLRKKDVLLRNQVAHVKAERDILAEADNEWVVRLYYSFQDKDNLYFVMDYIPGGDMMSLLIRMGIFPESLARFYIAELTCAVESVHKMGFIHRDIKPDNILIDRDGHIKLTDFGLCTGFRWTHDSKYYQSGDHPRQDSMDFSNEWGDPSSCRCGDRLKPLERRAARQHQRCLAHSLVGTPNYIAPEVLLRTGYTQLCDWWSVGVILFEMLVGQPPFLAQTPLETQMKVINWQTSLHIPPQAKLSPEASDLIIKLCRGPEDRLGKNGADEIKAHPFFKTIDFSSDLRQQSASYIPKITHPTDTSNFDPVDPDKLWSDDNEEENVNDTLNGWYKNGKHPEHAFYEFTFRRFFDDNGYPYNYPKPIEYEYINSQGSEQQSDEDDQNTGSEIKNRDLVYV
The assay is described as follows: RBC HotSpot kinase assay (33P-ATP, P81 filter-binding), LATS1. Conditions: Table 28, biochemical kinase assay; read-out: LATS1 IC50. In a few lines: (§1)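 Compounds were run as single 10-point titrations to give IC50 values in nM. Each kinase was mixed with substrate and cofactors in 20 mM Hepes pH 7.5 reaction buffer with 1% DMSO, then exposed to compound for 20 min. 33P-ATP was added for a 2 h room-temperature reaction, with activity measured by P81 filter binding.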

The target in the next assay is T2, LATS2 (Homo sapiens, UniProt Q9NRM7).
T2 sequence (Q9NRM7 1-1088): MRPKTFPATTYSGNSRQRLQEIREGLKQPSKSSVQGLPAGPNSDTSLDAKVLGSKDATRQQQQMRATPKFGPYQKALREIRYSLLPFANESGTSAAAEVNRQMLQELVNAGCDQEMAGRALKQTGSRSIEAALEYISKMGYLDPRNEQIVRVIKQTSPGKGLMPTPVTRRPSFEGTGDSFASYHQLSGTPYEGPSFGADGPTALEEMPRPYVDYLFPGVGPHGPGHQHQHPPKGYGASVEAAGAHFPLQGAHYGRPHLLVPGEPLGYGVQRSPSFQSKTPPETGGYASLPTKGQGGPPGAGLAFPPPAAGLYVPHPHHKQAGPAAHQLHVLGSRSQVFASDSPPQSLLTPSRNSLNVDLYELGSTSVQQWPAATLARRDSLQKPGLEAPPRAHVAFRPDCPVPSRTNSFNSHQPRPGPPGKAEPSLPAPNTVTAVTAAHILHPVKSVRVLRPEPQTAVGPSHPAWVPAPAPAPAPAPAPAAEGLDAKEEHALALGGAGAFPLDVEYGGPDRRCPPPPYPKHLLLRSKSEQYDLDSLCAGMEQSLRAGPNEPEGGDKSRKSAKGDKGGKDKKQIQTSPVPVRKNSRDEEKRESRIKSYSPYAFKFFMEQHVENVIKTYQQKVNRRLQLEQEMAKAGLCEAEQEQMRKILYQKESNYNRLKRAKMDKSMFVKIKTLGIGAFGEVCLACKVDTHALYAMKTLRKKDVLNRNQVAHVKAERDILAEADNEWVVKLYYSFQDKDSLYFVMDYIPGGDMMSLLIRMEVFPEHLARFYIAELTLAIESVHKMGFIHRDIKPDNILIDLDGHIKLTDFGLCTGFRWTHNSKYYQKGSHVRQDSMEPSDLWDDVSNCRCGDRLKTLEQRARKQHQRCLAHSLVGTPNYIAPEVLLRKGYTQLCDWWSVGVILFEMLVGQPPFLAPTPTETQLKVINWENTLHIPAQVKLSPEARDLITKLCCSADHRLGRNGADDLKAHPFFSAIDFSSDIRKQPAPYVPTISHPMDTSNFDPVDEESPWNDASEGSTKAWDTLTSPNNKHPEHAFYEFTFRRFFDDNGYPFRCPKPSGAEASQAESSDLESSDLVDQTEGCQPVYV
The assay is described as follows: RBC HotSpot kinase assay (33P-ATP, P81 filter-binding), LATS2. The following applies: Table 28, biochemical kinase assay; read-out: LATS2 IC50. In a few lines:
as §1

The next assay has as its target AKT (Homo sapiens, UniProt P31749). The experiment in a line: RBC HotSpot kinase assay (33P-ATP, P81 filter-binding), AKT. The following applies: Table 28, biochemical kinase assay; read-out: AKT IC50. In a few lines: as §1

Chain of AKT (P31749 whole entry): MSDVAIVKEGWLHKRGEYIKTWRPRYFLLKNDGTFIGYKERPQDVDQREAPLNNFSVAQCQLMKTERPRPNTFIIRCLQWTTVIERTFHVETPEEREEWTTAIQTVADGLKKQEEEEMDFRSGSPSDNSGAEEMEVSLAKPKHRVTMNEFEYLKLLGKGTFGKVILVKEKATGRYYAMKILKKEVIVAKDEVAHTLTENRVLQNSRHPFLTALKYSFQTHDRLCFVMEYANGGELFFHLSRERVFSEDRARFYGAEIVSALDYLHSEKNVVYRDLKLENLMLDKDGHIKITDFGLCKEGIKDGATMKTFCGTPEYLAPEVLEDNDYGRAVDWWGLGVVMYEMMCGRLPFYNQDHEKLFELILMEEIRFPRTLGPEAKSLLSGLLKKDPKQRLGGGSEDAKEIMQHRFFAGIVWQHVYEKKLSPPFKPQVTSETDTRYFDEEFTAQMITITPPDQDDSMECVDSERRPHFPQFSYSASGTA

Turning to `Cc1nc(-c2ccnc3[nH]cc(F)c23)ccc1C1(O)[C@H](C)CN(C(=O)CN)C[C@@H]1C` (stereo partly drawn) [Compound 76, 2-amino-1-((3S,5R)-4-(6-(3-fluoro-1H-pyrrolo[2,3-b]pyridin-4-yl)-2-methylpyridin-3-yl)-4-hydroxy-3,5-dimethylpiperidin-1-yl)ethan-1-one], the IC50 – broadly, the concentration needed to halve the response being measured – came out at 0.0298 µM at LATS1, 0.0189 µM on LATS2 and 1.72 µM at AKT.
Regarding `C[C@@H]1CN(C(=O)C(C)(C)N)C[C@H](C)C1(O)c1c(F)cc(-c2ccnc3[nH]cc(F)c23)cc1F` (stereo partly drawn) [Compound 77, 2-amino-1-((3S,5R)-4-(2,6-difluoro-4-(3-fluoro-1H-pyrrolo[2,3-b]pyridin-4-yl)phenyl)-4-hydroxy-3,5-dimethylpiperidin-1-yl)-2-methylpropan-1-one], the IC50 came to 0.0246 µM on LATS1, 0.0193 µM on LATS2 and 0.885 µM on AKT.
`C[C@@H]1CN(C(=O)C2(N)CC2)C[C@H](C)C1(O)c1c(F)cc(-c2ccnc3[nH]cc(F)c23)cc1F` (stereo partly drawn) [Compound 78, (1-aminocyclopropyl) ((3S,5R)-4-(2,6-difluoro-4-(3-fluoro-1H-pyrrolo[2,3-b]pyridin-4-yl)phenyl)-4-hydroxy-3,5-dimethylpiperidin-1-yl)methanone]: the IC50 at LATS1 was determined as 0.0169 µM; on LATS2, 0.034 µM; on AKT, 2.43 µM.
For `C[C@@H]1CN(C(=O)C2(N)CC(F)(F)C2)C[C@H](C)C1(O)c1c(F)cc(-c2ccnc3[nH]cc(F)c23)cc1F` (stereo partly drawn) [Compound 79, (1-amino-3,3-difluorocyclobutyl) ((3S,5R)-4-(2,6-difluoro-4-(3-fluoro-1H-pyrrolo[2,3-b]pyridin-4-yl)phenyl)-4-hydroxy-3,5-dimethylpiperidin-1-yl)methanone], in that order: 0.0128 µM, 0.0295 µM and 5.14 µM.
For `C[C@@H]1CN(C(=O)CN(C)C)C[C@H](C)C1(O)c1c(F)cc(-c2ccnc3[nH]cc(F)c23)cc1F` (stereo partly drawn) [Compound 80, 1-((3S,5R)-4-(2,6-difluoro-4-(3-fluoro-1H-pyrrolo[2,3-b]pyridin-4-yl)phenyl)-4-hydroxy-3,5-dimethylpiperidin-1-yl)-2-(dimethylamino) ethan-1-one], the results for the IC50 on LATS1, on LATS2 and at AKT were 0.0123 µM, 0.0128 µM and 0.7 µM, respectively.
For `C[C@@H]1CN(C(=O)[C@@H]2COCCN2)C[C@H](C)C1(O)c1c(F)cc(-c2ccnc3[nH]cc(F)c23)cc1F` (stereo partly drawn) [Compound 81, ((3S,5R)-4-(2,6-difluoro-4-(3-fluoro-1H-pyrrolo[2,3-b]pyridin-4-yl)phenyl)-4-hydroxy-3,5-dimethylpiperidin-1-yl)((S)-morpholin-3-yl)methanone], the IC50 on LATS1 is 0.0241 µM; on LATS2, 0.0224 µM; at AKT it was 1.02 µM.
As to `C[C@H](N)C(=O)N1C[C@@H](C)C(O)(c2c(F)cc(-c3ccnc4[nH]cc(F)c34)cc2F)[C@@H](C)C1` (stereo partly drawn) [Compound 82, (2S)-2-amino-1-((3S,5R)-4-(2,6-difluoro-4-(3-fluoro-1H-pyrrolo[2,3-b]pyridin-4-yl)phenyl)-4-hydroxy-3,5-dimethylpiperidin-1-yl)propan-1-one], the concentration for half-maximal inhibition (IC50) was 0.0145 µM on LATS1, 0.0142 µM on LATS2 and 0.506 µM at AKT.
For `CNCC(=O)N1C[C@@H](C)C(O)(c2c(F)cc(-c3ccnc4[nH]cc(F)c34)cc2F)[C@@H](C)C1` (stereo partly drawn) [Compound 83, 1-((3S,5R)-4-(2,6-difluoro-4-(3-fluoro-1H-pyrrolo[2,3-b]pyridin-4-yl)phenyl)-4-hydroxy-3,5-dimethylpiperidin-1-yl)-2-(methylamino) ethan-1-one], the values for the concentration for half-maximal inhibition (IC50) on LATS1, on LATS2 and on AKT were 0.025 µM, 0.0213 µM and 0.57 µM, respectively.
Consider `C[C@@H]1CN(C(=O)[C@@H]2CCCN2)C[C@H](C)C1(O)c1c(F)cc(-c2ccnc3[nH]cc(F)c23)cc1F` (stereo partly drawn) [Compound 84, 4-(4-((3S,5R)-1-(L-prolyl)-4-hydroxy-3,5-dimethylpiperidin-4-yl)-3,5-difluorophenyl)-3-fluoro-1H-pyrrolo[2,3-b]pyridine], for which the concentration for half-maximal inhibition (IC50) turned out to be 0.0216 µM at LATS1, 0.0103 µM at LATS2 and 1.47 µM at AKT.
With `C[C@@H]1CN(C(=O)[C@H]2CCCN2)C[C@H](C)C1(O)c1c(F)cc(-c2ccnc3[nH]cc(F)c23)cc1F` (stereo partly drawn) [Compound 85, 4-(4-((3S,5R)-1-(D-prolyl)-4-hydroxy-3,5-dimethylpiperidin-4-yl)-3,5-difluorophenyl)-3-fluoro-1H-pyrrolo[2,3-b]pyridine], the IC50 at LATS1 was 0.0058 µM; on LATS2, 0.0047 µM; on AKT, 0.659 µM.
For `C[C@@H]1CN(C(=O)[C@@H](C)N)C[C@H](C)C1(O)c1c(F)cc(-c2ccnc3[nH]cc(F)c23)cc1F` (stereo partly drawn) [Compound 86, (2R)-2-amino-1-((3S,5R)-4-(2,6-difluoro-4-(3-fluoro-1H-pyrrolo[2,3-b]pyridin-4-yl)phenyl)-4-hydroxy-3,5-dimethylpiperidin-1-yl)propan-1-one], in that order: 0.0203 µM, 0.0065 µM and 0.691 µM.
On the same counts, the results for `C[C@@H]1CN(C(=O)CN)C[C@H](C)C1(O)c1cnc(-c2ccnc3[nH]cc(F)c23)cc1F` (stereo partly drawn) [Compound 87, 2-amino-1-((3S,5R)-4-(4-fluoro-6-(3-fluoro-1H-pyrrolo[2,3-b]pyridin-4-yl)pyridin-3-yl)-4-hydroxy-3,5-dimethylpiperidin-1-yl)ethan-1-one] are 0.048 µM, 0.0473 µM and 4.01 µM.
Consider `C[C@@H]1CN(C2CC3(CNC3)C2)C[C@H](C)[C@@]1(O)c1c(F)cc(-c2ccnc3[nH]cc(F)c23)cc1F` [Compound 89, (3R,4s,5S)-4-(2,6-difluoro-4-(3-fluoro-1H-pyrrolo[2,3-b]pyridin-4-yl)phenyl)-3,5-dimethyl-1-(2-azaspiro[3.3]heptan-6-yl)piperidin-4-ol], for which the IC50 is 0.0037 µM at LATS1, 0.0038 µM at LATS2 and 0.068 µM at AKT.
On the same counts, the results for `Cc1cc(-c2ccnc3[nH]cc(F)c23)cc(F)c1[C@@]1(O)[C@H](C)CN(C2CCNCC2)C[C@@H]1C` [Compound 91, (3S,4s,5R)-4-(2-fluoro-4-(3-fluoro-1H-pyrrolo[2,3-b]pyridin-4-yl)-6-methylphenyl)-3,5-dimethyl-[1,4′-bipiperidin]-4-ol] are 0.0079 µM, 0.0042 µM and 0.179 µM.
